According to US10111890B2, “9-aminomethyl minocycline compounds and uses thereof” (Paratek Pharmaceuticals, Inc., priority 2016, dated 2018):

Test: Phase 3 oral omadacycline vs oral linezolid in ABSSSI: safety (adverse events, TEAEs, vital signs, ECG, laboratory)
Assay type: in vivo
Conditions: safety population
Source text: An Adverse Event (AE) is any untoward, undesired, or unplanned event in the form of signs, symptoms, disease, or laboratory or physiologic observations occurring in a person given a test article or in a clinical study. […] An AE includes, but is not limited to, the following: any clinically significant worsening of a preexisting condition; an AE occurring from overdose of a test article, whether accidental or intentional; overdose is a dose greater than that specified in the protocol; an AE occurring from abuse (e.g., use for nonclinical reasons) of a test article; and an AE that has been associated with the discontinuation of the use of a test article.
The severity (or intensity) of an AE was classified using the following criteria:
Concerning relatedness, causality (i.e., whether there was a reasonable possibility that test article caused the event) for all AEs and SAEs was assessed.
Safety variables include the incidence rate of AEs, change in vital signs, ECG parameters and laboratory test results obtained during the course of the study. For safety analyses, subjects were analyzed according to the treatment actually received.
Summary tables were provided for all treatment-emergent adverse events (TEAEs). A TEAE is defined as an AE with a start date and time on or after the first dose of test article. […] Additional tabulations provide summaries by SOC and PT of subjects experiencing SAEs, severe TEAEs, TEAEs judged to be related to test article, TEAEs leading to discontinuation of test article, and TEAEs of special interest.
The following variables were analyzed descriptively: Vital signs (systolic and diastolic BP, pulse rate, body temperature, respiratory rate), including change from Screening by visit; Clinically notable vital signs (meeting predefined criteria as specified in the SAP) by visit. Subjects with notable vital signs data were listed.
ECG data (RR interval, PR interval, QRS interval, QTc, QTc Bazett's Correction Formula [QTcB], and QTc Fridericia's Correction Formula [QTcF]) was summarized descriptively at each scheduled evaluation, and for the overall worst post-Screening value. Changes from Screening at each visit that a 12-lead ECG was obtained was also provided. An outlier analysis was conducted based on the worst post-Screening value.
The following variables were analyzed descriptively: Laboratory variables by visit; Change from Screening of laboratory variables by visit; and Clinically notable laboratory values (meeting predefined criteria specified in the SAP) by visit.

In the case of CC(=O)NCC1CN(c2ccc(N3CCOCC3)c(F)c2)C(=O)O1 (stereo not drawn) [Linezolid, N-[[3-(3-fluoro-4-morpholinophenyl)-2-oxooxazolidin-5-yl]methyl]acetamide, reference compound], the Subjects who died is reported as 1 (0.3) n (%), the “Subjects with at Least One Adverse Events (AE)” value is reported as 140 (38.1) n (%) and the “Subjects with at Least One Drug-Related Serious TEAE” value is reported as 1 (0.3) n (%). The “Subjects with at Least One Drug-Related TEAE” value was 52 (14.2) n (%), the “Subjects with at Least One Serious TEAE” value was 5 (1.4) n (%) and the “Subjects with at Least One Serious TEAE leading to Death” value was 1 (0.3) n (%). For the same molecule, the “Subjects with at Least One Serious TEAEs leading to premature discontinuation of test article” value was 2 (0.5) n (%), the “Subjects with at Least One Severe TEAE” value was 7 (1.9) n (%) and the “Subjects with at Least One TEAE Leading to Study Drug Discontinuation” value was 3 (0.8) n (%). The “Subjects with at Least One TEAE leading to dose interruption” value was 0 n (%), the “Subjects with at Least One TEAE leading to premature discontinuation of study” value was 1 (0.3) n (%) and the “Subjects with at Least One TEAE leading to premature discontinuation of test article” value was 3 (0.8) n (%). The “TEAE leading to study drug discontinuation: Cellulitis” value was 0 n (%), the “TEAE leading to study drug discontinuation: Gastrointestinal Disorders (SOC)” value was 0 n (%) and the “TEAE leading to study drug discontinuation: Haematemesis” value was 0 n (%). For the same molecule, the “TEAE leading to study drug discontinuation: Infections And Infestations (SOC)” value was 1 (0.3) n (%), the “TEAE leading to study drug discontinuation: Nausea” value was 0 n (%) and the “TEAE leading to study drug discontinuation: Pregnancy” value was 0 n (%). For the same molecule, the “TEAE leading to study drug discontinuation: Pregnancy, Puerperium And Perinatal Conditions (SOC)” value was 0 n (%), the “TEAE leading to study drug discontinuation: Staphylococcal Bacteraemia” value was 0 n (%) and the “TEAE leading to study drug discontinuation: Subcutaneous Abscess” value was 0 n (%). For the same molecule, the “TEAE leading to study drug discontinuation: Vomiting” value was 0 n (%), the “TEAE leading to study drug discontinuation: Wound Infection” value was 1 (0.3) n (%) and the “TEAE: Alanine Aminotransferase Increased” value was 11 (3.0) n (%). For the same molecule, the “TEAE: Aspartate Aminotransferase Increased” value was 12 (3.3) n (%), the “TEAE: Cellulitis” value was 9 (2.5) n (%) and the “TEAE: Headache” value was 8 (2.2) n (%). The “TEAE: Wound Infection” value was 17 (4.6) n (%), the “Total Number of AEs” value was 250 and the “Total Number of TEAEs” value was 239. For the same molecule, the “Subjects with at Least One TEAE” value (AE overview) was 137 (37.3) n (%), the “TEAE: Abdominal Pain Upper” value (all severities) was 4 (1.1) n (%) and the “TEAE: Diarrhea” value (all severities) was 10 (2.7) n (%). The “TEAE: Nausea” value (all severities) was 28 (7.6) n (%), the “TEAE: Vomiting” value (all severities) was 11 (3.0) n (%) and the “Subjects with at Least One TEAE, Mild” value (highest severity Mild) was 85 (23.2) n (%). The “TEAE: Abdominal Pain Upper, Mild” value (highest severity Mild) was 4 (1.1) n (%), the “TEAE: Abdominal Pain, Mild” value (highest severity Mild) was 1 (0.3) n (%) and the “TEAE: Diarrhea, Mild” value (highest severity Mild) was 9 (2.5) n (%). For the same molecule, the “TEAE: Gastrointestinal Disorders (SOC), Mild” value (highest severity Mild) was 44 (12.0) n (%), the “TEAE: Nausea, Mild” value (highest severity Mild) was 24 (6.5) n (%) and the “TEAE: Vomiting, Mild” value (highest severity Mild) was 10 (2.7) n (%). For the same molecule, the “Subjects with at Least One TEAE, Moderate” value (highest severity Moderate) was 45 (12.3) n (%), the “TEAE: Abdominal Pain Upper, Moderate” value (highest severity Moderate) was 0 n (%) and the “TEAE: Abdominal Pain, Moderate” value (highest severity Moderate) was 1 (0.3) n (%). The “TEAE: Diarrhea, Moderate” value (highest severity Moderate) was 1 (0.3) n (%), the “TEAE: Gastrointestinal Disorders (SOC), Moderate” value (highest severity Moderate) was 8 (2.2) n (%) and the “TEAE: Nausea, Moderate” value (highest severity Moderate) was 4 (1.1) n (%). The “TEAE: Vomiting, Moderate” value (highest severity Moderate) was 1 (0.3) n (%), the “Subjects with at Least One TEAE, Severe” value (highest severity Severe) was 7 (1.9) n (%) and the “TEAE: Abdominal Pain Upper, Severe” value (highest severity Severe) was 0 n (%). The “TEAE: Abdominal Pain, Severe” value (highest severity Severe) was 0 n (%), the “TEAE: Diarrhea, Severe” value (highest severity Severe) was 0 n (%) and the “TEAE: Gastrointestinal Disorders (SOC), Severe” value (highest severity Severe) was 0 n (%).
